As usually defined, the IC50 is the midpoint of a concentration-inhibition curve. The inhibition is the share of the control response that was lost under treatment.

Data set [1] deals with H322. Kind of data set: Therapeutic effect of cancer cell line, IC50. The format is cell-based. As to conditions: NCI-H322; H322, NAPRT expression negative.
Data set [2] concerns H661. Kind of data set: Therapeutic effect of cancer cell line, IC50. The data set is classed as cell-based. As to conditions: Homo sapiens, NCI-H661; H661, NAPRT expression negative.
The test system of data set [3] is H1115. Briefly: Therapeutic effect of cancer cell line, IC50. The data set is classed as cell-based. As to conditions: H1115, NAPRT expression negative.
Data set [4] is described as follows: Microsome stability evaluation. The format is in vitro ADME, human. As to conditions: after 30 minutes, 1 μM compound, 0.3 mg/ml microsomal protein, 1 mM NADPH. The protocol:
(§1) Metabolic stability was assessed using human liver microsomes and mouse liver microsomes. Specifically, pooled male mouse liver microsomes (in-house preparation per SOP), pooled human liver microsomes (XENOTECH; […] The reaction was stopped by addition of acetonitrile ([…]) containing the same volume of internal standard. The precipitated proteins were removed by centrifugation and the supernatant was analyzed by LC/MS-MS method. […] Residual % parent compound=(peak area at time x/peak area at TO)×100.

Data set [5] is described as follows: Microsome stability evaluation. The format is in vitro ADME, mouse. As to conditions: after 30 minutes, 1 μM compound, 0.3 mg/ml microsomal protein, 1 mM NADPH. Here is the method: as §1
Data set [6] addresses hERG channel (Homo sapiens, UniProt Q12809). Kind of data set: hERG screening by fluorescence polarization with red fluorescent hERG channel ligand tracer. As to conditions: probe high affinity red fluorescent hERG channel ligand tracer, mean±standard deviation, read-out: % inhibition capacity. The format is binding. A general note: The hERG channel carries a current that helps repolarise heart muscle cells.

Data set [7] concerns the target hERG K+ channel (Homo sapiens, UniProt Q12809). Kind of data set: hERG K+ channel activity evaluation, patch clamp.
Experimental: In addition, as the hERG K+ channel activity evaluation, the potential risk of log QT prolongation according to the dose used was evaluated by measuring the current inhibition according to the drug using a patch clamp technique and evaluating the IC50.
The subject of data set [8] is H1299. Briefly: Therapeutic effect of cancer cell line, IC50. The format is cell-based. As to conditions: Homo sapiens, NCI-H1299; H1299, NAPRT expression positive.
Data set [9] has as its system H1975. Briefly: Therapeutic effect of cancer cell line, IC50. As to conditions: Homo sapiens, NCI-H1975; H1975, NAPRT expression positive. The format is cell-based.
Data set [10] concerns H1993. Briefly: Therapeutic effect of cancer cell line, IC50. The data set is classed as cell-based. As to conditions: Homo sapiens, NCI-H1993; H1993, NAPRT expression positive.
Data set [11] has as its system H2030. Kind of data set: Therapeutic effect of cancer cell line, IC50. The data set is classed as cell-based. As to conditions: Homo sapiens, NCI-H2030; H2030, NAPRT expression positive.
For data set [12], the system named is H2122. Kind of data set: Therapeutic effect of cancer cell line, IC50. As to conditions: Homo sapiens, NCI-H2122; H2122, NAPRT expression positive. The data set is classed as cell-based.
The subject of data set [13] is HBEC30. Kind of data set: Therapeutic effect of cancer cell line, IC50. The data set is classed as cell-based. As to conditions: HBEC30, NAPRT expression positive.
Data set [14] concerns liver cell (THLE-2). Kind of data set: Toxicity assessment in normal cell line, cell viability. The format is cell-based. As to conditions: for toxicity: THLE-2, very high concentrations of 50 μM.
The test system of data set [15] is liver cell (THLE-3). Briefly: Toxicity evaluation in normal cell line, cell viability. The data set is classed as cell-based. As to conditions: for toxicity: THLE-3, very high concentrations of 50 μM.
Data set [16] concerns H322 cell line. Kind of data set: Toxic mechanism in cancer cell lines: intracellular NAD, ATP and total protein. The data set is classed as cell-based. As to conditions: H322, 2.5 μM. Here is the method:
To investigate the direct effect of the compound according to the present invention on the catalytic activity of NamPT enzyme, after treating H322 cell line with 2.5 μM of the compound of the Synthesis Example 4, the intracellular NAD, ATP and total protein was measured, with the results depicted in FIG. 20.

The structures appear in SMILES notation.

hERG K+ channel, sequence (Q12809 whole entry): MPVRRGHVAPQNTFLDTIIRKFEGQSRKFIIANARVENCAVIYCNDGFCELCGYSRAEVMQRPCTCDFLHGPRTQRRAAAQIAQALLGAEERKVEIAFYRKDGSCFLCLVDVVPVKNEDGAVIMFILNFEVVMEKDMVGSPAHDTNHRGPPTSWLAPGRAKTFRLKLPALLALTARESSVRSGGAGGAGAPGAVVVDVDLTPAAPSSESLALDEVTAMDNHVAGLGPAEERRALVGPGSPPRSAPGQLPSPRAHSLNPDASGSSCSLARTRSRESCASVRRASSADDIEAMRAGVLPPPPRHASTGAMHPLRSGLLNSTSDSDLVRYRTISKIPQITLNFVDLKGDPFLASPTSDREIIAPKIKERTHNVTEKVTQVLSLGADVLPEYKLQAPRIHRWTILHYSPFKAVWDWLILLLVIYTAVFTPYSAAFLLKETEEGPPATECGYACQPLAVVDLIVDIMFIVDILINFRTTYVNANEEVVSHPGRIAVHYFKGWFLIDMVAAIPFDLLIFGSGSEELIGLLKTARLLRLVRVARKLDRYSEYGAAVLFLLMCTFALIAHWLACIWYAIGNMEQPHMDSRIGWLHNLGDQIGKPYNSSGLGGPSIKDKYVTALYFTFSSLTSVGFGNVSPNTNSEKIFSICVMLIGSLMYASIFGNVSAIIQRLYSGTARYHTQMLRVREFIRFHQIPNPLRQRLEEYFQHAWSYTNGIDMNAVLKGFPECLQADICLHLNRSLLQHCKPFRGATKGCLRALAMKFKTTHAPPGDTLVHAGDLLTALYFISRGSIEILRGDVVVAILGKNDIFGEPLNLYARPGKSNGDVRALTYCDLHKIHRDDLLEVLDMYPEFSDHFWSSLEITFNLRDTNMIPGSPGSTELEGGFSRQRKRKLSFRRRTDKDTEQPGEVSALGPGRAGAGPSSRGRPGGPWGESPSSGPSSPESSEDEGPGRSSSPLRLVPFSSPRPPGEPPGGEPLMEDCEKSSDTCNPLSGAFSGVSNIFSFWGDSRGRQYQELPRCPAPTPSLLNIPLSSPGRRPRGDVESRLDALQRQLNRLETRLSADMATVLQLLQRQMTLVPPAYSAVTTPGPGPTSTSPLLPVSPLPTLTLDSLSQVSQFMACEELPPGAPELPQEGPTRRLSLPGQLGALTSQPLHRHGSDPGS
hERG channel, sequence (Q12809 whole entry): as above

Regarding `O=C(NCc1ccc(-c2nc3cc4ccccc4cc3o2)cc1)c1cccnc1` [A4265, N-(4-(naphtho[2,3-d]oxazol-2-yl)benzyl)nicotinamide], the half-maximal inhibitory concentration (IC50) in data set [1] is 3 nM; in data set [2] it was less than 30 nM; in [3], 10 nM; in data set [7] it was more than 100 µM. Moreover, the “Human(%) parent compound remaining” value in [4] came out at 81.11 ± 4.76%. For the same molecule, the “Mouse(%) parent compound remaining” value in data set [5] was 78.24 ± 6.49%. Further, in data set [6], the inhibition at 10 µM came out at 7.44 ± 3.12%.

`O=C(NCc1ccc(-c2nc3ccccc3s2)cc1)c1cccnc1` [B1469] had a half-maximal inhibitory concentration (IC50) in data set [1] of 60 nM.

Regarding `O=C(NCc1ccc(-c2nc3ccccc3o2)cc1)c1cccnc1` [B1470], the IC50 in data set [1] stood at 60 nM.

Take `CCc1nnc2sc(-c3ccc(CNC(=O)c4cccnc4)cc3)nn12` [B1423]: the IC50 in data set [1] was 600 nM; in [2] it was more than 1000 nM; in [3] it was 1000 nM; in data set [8], more than 100 µM; in data set [9], more than 100 µM; in data set [10], more than 100 µM. Moreover, the IC50 in [11], in [12] and in data set [13] was more than 100 µM throughout.

Regarding `Cc1ccc2nc(-c3ccc(CNC(=O)c4ccccc4)cc3)oc2c1` [A4303], the IC50 in data set [1], in data set [2] and in data set [3] was 10000 nM throughout.

The molecule `O=C(Nc1ccc2c(c1)CN(C(=O)/C=C/c1cccnc1)CC2)c1ccncc1` [B1963] showed an IC50 in data set [1] of 390 nM.

`Cc1nccn1-c1ccc(CNC(=O)c2cccnc2)cc1` [B1967] had an IC50 in data set [1] of 12500 nM.

As to `CC(C)(C)c1ccc2nc(-c3ccc(CNC(=O)c4cccnc4)cc3)oc2c1` [A4263], the IC50 in data set [1] is less than 30 nM; in [2], 1000 nM; in data set [3], less than 300 nM.

As for `O=C(Nc1ccc(C(=O)OC2CCCCC2)cc1)c1cccnc1` [B1477], the IC50 in [1] was less than 24 nM; in data set [2], more than 1000 nM; in [3], more than 1000 nM; in data set [8], less than 100 µM; in [9] it was more than 100 µM; in data set [10] it was less than 100 µM. Moreover, the IC50 was less than 100 µM in data set [11], 31.6 µM in [12] and more than 100 µM in data set [13]. The toxicity result in data set [14] and in data set [15] was “little toxicity” throughout.

Molecule `Cc1ccc(-c2noc(C(=O)NCCNC(=O)c3cccnc3)n2)cc1` [B1857] showed an IC50 in data set [1] of 10000 nM.

Take `O=C(NCc1ccc(-c2nc3cnccc3o2)cc1)c1cccnc1` [B1471, N-(4-(oxazolo[4,5-c]pyridin-2-yl)benzyl)nicotinamide]: the IC50 in data set [1] was less than 24 nM; in data set [2], 700 nM; in [3] it was more than 1000 nM; in data set [8] it was 100 µM; in data set [9], more than 100 µM; in [10] it was more than 100 µM. Besides, the IC50 in data set [11], in data set [12] and in data set [13] was more than 100 µM each time. In addition, the “amount of ATP” value in data set [16] is given as “remarkably decreased”. Also, the “amount of NAD” value in [16] is listed as “remarkably decreased”. The “total amount of protein compared to the negative control” value in data set [16] is on record as “decrease”.

In data set [1], `O=C(NCc1ccc(S(=O)(=O)N2CCOCC2)cc1)c1cccnc1` [B1977] displayed an IC50 of 6250 nM.

In data set [1], `CC(C)c1ccc2oc(-c3ccc(NC(=O)c4cccnc4)cc3)nc2c1` [B1479] showed an IC50 of 5000 nM.

As to `Cn1/c(=N/NC(=O)/C=C/c2cccnc2)sc2ccccc21` [B1983], the 50% inhibitory concentration (IC50) in data set [1] turned out to be 300 nM.

In the case of `O=C(/C=C/c1cccnc1)N1CCN(Cc2csc(-c3ccco3)n2)CC1` [B1976], the IC50 in [1] was found to be 10000 nM.

Regarding `COC(=O)c1ccc(NC(=O)c2cccnc2)cc1` [B1380], the IC50 was 6250 nM in data set [1]; 2500 nM in [2]; more than 12.5 µM in [10]; more than 12.5 µM in data set [12]; more than 12.5 µM in data set [13].

For `COC(=O)c1ccc(CCNC(=O)c2ccc3nccn3c2)cc1` [B1531], the half-inhibitory concentration (IC50) in data set [1] worked out at 6250 nM.

Regarding `O=C1CC2(CCCC2)CC(=O)N1CCCCN1CCN(c2ncccn2)CC1` [Buspirone, reference compound], the “Human(%) parent compound remaining” value in data set [4] was 0.101 ± 0.028%. The “Mouse(%) parent compound remaining” value in data set [5] amounted to 3.189 ± 1.078%.

Molecule `CCN(CC)Cc1ccc(CNC(=O)c2cccnc2)cc1` [B1982] gave an IC50 in [1] of 12000 nM.

Take `O=C(NCc1ccc(-c2nc3ccc([N+](=O)[O-])cc3o2)cc1)c1cccnc1` [A4261]: the IC50 in [1] is 30 nM; in data set [2], less than 300 nM; in data set [3], less than 100 nM.

In data set [1], `CC(C)c1cc(C(F)(F)F)n2nc([C@H]3CCN(C(=O)/C=C/c4cccnc4)C3)cc2n1` [B1964] showed an IC50 of 200 nM.

Molecule `O=C(NCc1ccc(-c2nc3ncccc3o2)cc1)c1cccnc1` [B1472] came in with a concentration for half-maximal inhibition (IC50) in [1] of 300 nM.

Consider `O=C(NCc1ccc(OCc2ccccn2)cc1)c1cccnc1` [B1979], for which the half-maximal inhibitory concentration (IC50) in data set [1] worked out at 780 nM.

As to `Cc1ccc2oc(-c3ccc(CNC(=O)c4cccnc4)cc3)nc2c1` [A4275], the values for the half-maximal inhibitory concentration (IC50) in data set [1], in [2] and in data set [3] were 30 nM, less than 300 nM and less than 300 nM, respectively.

For `O=C(/C=C/c1cccnc1)NCCCN1CCc2ccccc21` [B1975], the IC50 in data set [1] turned out to be 1200 nM.

As for `O=C(NCc1ccc(S(=O)(=O)c2cc(F)cc(F)c2)cc1)c1ccc2nccn2c1` [GNE617, N-(4-((3,5-difluorophenyl)sulfonyl)benzyl)imidazo[1,2-a]pyridine-6-carboxamide, reference compound], the IC50 was approximately 50 nM in data set [14] (Homo sapiens, THLE-2, FIG. 25) and approximately 50 nM in data set [15] (THLE3, THLE-3, FIG. 26).

Regarding `CCc1nnc2sc(-c3ccc(NC(=O)c4cccnc4)cc3)nn12` [B1485], in data set [1], the IC50 was found to be 30 nM.

Consider `CCc1ccc2oc(-c3ccc(CNC(=O)c4cccnc4)cc3)nc2c1` [Drug3, N-(4-(5-ethylbenzo[d]oxazol-2-yl)benzyl)nicotinamide], for which the IC50 in data set [1] was 1000 nM; in data set [2], less than 1000 nM; in [3] it was less than 3100 nM.

For `O=C(NCCNC(=O)c1nc(-c2ccc(Cl)cc2)no1)c1cccnc1` [B1856], the concentration for half-maximal inhibition (IC50) in data set [1] worked out at 12500 nM.

`O=C(NCCNC(=O)c1nc(-c2cccs2)no1)c1cccnc1` [B1863] displayed an IC50 in [1] of 12500 nM.

In turn, `O=C(NCCNC(=O)c1ccc2ccccc2n1)c1cccnc1` [B1872] returned an IC50 in [1] of 10000 nM.

As to `O=C(NCCNC(=O)c1nc2ccccc2s1)c1cccnc1` [B1873], the IC50 in [1] came to 5000 nM.

For `COc1ccc2oc(-c3ccc(CNC(=O)c4cccnc4)cc3)nc2c1` [B1474], the IC50 in [1] amounted to 50 nM.

Consider `O=C(Nc1ccc(C(=O)c2cc3ccccc3o2)cc1)c1cccnc1` [B1484], for which, in data set [1], the IC50 was 50 nM.

In data set [1], `O=C(NCc1ccc(N2CCCCC2)cc1)c1cccnc1` [B1978] registered an IC50 of 1200 nM.

In turn, `Cc1ccc(-c2nc3cc(NC(=O)c4cccnc4)ccc3o2)cc1C` [B1716] showed an IC50 in data set [1] of 12500 nM.

With `COc1ccc(-c2noc(C(=O)NCCNC(=O)c3cccnc3)n2)cc1` [B1866], the IC50 in [1] was 10000 nM.

Turning to `O=C(Nc1ccc(-c2nn3cnnc3s2)cc1)c1cccnc1` [B1523], the IC50 in [1] worked out at 1560 nM.

Consider `O=C(NCc1ccc(-c2nc3cc(-c4ccccc4)ccc3o2)cc1)c1cccnc1` [A4262], for which the results for the IC50 in [1], in data set [2] and in data set [3] were 30 nM, 30000 nM and less than 100 nM, respectively.

In [1], `CC(C)OC(=O)c1ccc(NC(=O)c2cccnc2)cc1` [B1416] had an IC50 of less than 1560 nM.

Consider `O=C(NCc1ccc(S(=O)(=O)N2CCCCC2)cc1)c1cccnc1` [B1981], for which, in data set [1], the IC50 came to 3100 nM.

With `CCc1ccc2nc(-c3ccc(CNC(=O)c4cccnc4)cc3)oc2c1` [A4302], the figures for the IC50 in [1], in [2] and in data set [3] were 100 nM, 100 nM and less than 300 nM, respectively.

For `Cc1nnc2sc(-c3ccc(CNC(=O)c4cccnc4)cc3)nn12` [B1468], the IC50 is less than 24 nM in data set [1]; more than 1000 nM in data set [2]; 3160 nM in data set [3]; more than 100 µM in [8]; more than 100 µM in [9]; more than 100 µM in [10]. The IC50 in [11], in [12] and in data set [13] was more than 100 µM each time. Besides, the toxicity result in data set [14] and in [15] was “little toxicity” in each case.

For the origin of these results see patent US11795163B2, “Compound for inhibiting nicotinamide phosphoribosyltransferase and composition containing same” (CHECKMATE THERAPEUTICS INC., priority 2016, dated 2023).
